Source: patent publication US11077090B2, “Compounds and compositions and uses thereof” (Sunovion Pharmaceuticals Inc., priority 2016, dated 2021)
Read-outs that look alike come from different tables or passages of the source.

Tested on: compound-treated mice
Experiment: Neuropharmacological assay (SmartCube): behavioral activity signature and minimal effective dose
Type: in vivo
Conditions: for minimal effective dose: Mus musculus, ip; for AD: ADHD (probability of activity signature) / AG: analgesic (probability of activity signature) / AX: anxiolytic (probability of activity signature) / CE: cognitive enhancer (probability of activity signature) / DP: anti-depressant (probability of activity signature) / MS: mood stabilizer (probability of activity signature) / PS: anti-psychotic (probability of activity signature) / SD: sedative hypnotic (probability of activity signature) / UN: uncharacterized CNS activity (probability of activity signature): i.p. 15 min before test, most efficacious dose(s)
Description: Neurosci. 2011 Sep. 9; 5:103 (doi: 10.3389/fnins.2011.00103) (“Roberds”). As reported in Roberds, because psychiatric diseases generally result from disorders of cell-cell communication or circuitry, intact systems are useful in detecting improvement in disease-relevant endpoints. These endpoints are typically behavioral in nature, often requiring human observation and interpretation. To facilitate testing of multiple compounds for behavioral effects relevant to psychiatric disease, PsychoGenics, Inc. (Tarrytown, N.Y., “PGI”) developed SmartCube™, an automated system in which behaviors of compound-treated mice are captured by digital video and analyzed with computer algorithms. (D. Brunner et al., Drug Discov. Today 2002, 7:S107-S112). PGI Analytical Systems uses data from SmartCube™ to compare the behavioral signature of a test compound to a database of behavioral signatures obtained using a large set of diverse reference compounds. (The composition of the database as well as validation of the method is further described in Roberds). In this way, the neuropharmacological effects of a test compound can be predicted by similarity to major classes of compounds, such as antipsychotics, anxiolytics and antidepressants.
The SmartCube™ system produces an activity signature indicating the probability that the activity of the test compound at the administered dose matches a given class of neuropharmacological agents. (See, e.g., Roberds, FIGS. 2 and 3). The test compound is simultaneously compared against multiple classes of agents; thus, a separate probability is generated for each behavioral effect measured (e.g., anxiolytic activity, analgesic activity, etc.). In the table below, these probabilities are reported for each behavioral effect measured as follows:
where LOQ is the limit of quantification.
Provided compounds were dissolved in a mixture of Pharmasolve™ (N-methyl-2-pyrrolidone), polyethylene glycol and propylene glycol, and were injected i.p. 15 min. before the behavioral test. For each compound, injections were administered at 3 different doses. For each behavioral effect measured, results for the most efficacious dose(s) are presented. In the table below, DP: anti-depressant; AX: anxiolytic; SD: sedative hypnotic; PS: anti-psychotic; MS: mood stabilizer; AD: ADHD; CE: cognitive enhancer; AG: analgesic; UN: uncharacterized CNS activity.
The potency of many of the compounds in the table was also determined in the SmartCube™ system. Test compounds were routinely examined at dose levels of 0.3, 1, 3, 10 and 30 mg per kg (mpk), although the dose range was increased or decreased if necessary to obtain a full dose response curve. A compound's minimal effective dose (MED) is a measure of the compounds potency. The MED was defined as the dose (in mpk) having 50% or more total activity in SmartCube.

[1] = MED = dose having 50% or more total activity, read-out: Potency: minimal effective dose (MED)
[2] = MED = dose having 50% or more total activity

Row | SMILES | minimal effective dose [1] [mg/kg] | AD: ADHD (probability of activity signature) | AG: analgesic (probability of activity signature) | AX: anxiolytic (probability of activity signature) | CE: cognitive enhancer (probability of activity signature) | DP: anti-depressant (probability of activity signature) | MS: mood stabilizer (probability of activity signature) | PS: anti-psychotic (probability of activity signature) | SD: sedative hypnotic (probability of activity signature) | UN: uncharacterized CNS activity (probability of activity signature) | Potency: minimal effective dose (MED) [2] | minimal effective dose (MED = dose having 50% or more total activity, read-out: Potency: minimal effective dose (MED), binned) [mg/kg] | Potency: minimal effective dose (MED), binned [2]
1 | Cc1ccc2c(c1)C(N)C(C)(C)COC2.Cl (stereo not drawn) [Example 63, 4,4,7-Trimethyl-1,3,4,5-tetrahydrobenzo[c]oxepin-5-amine hydrochloride] | 10 to 30 | + (LOQ ≤ + <5%) | ++ (5% ≤ ++ <25%) | ++ (5% ≤ ++ <25%) | ++ (5% ≤ ++ <25%) | ++ (5% ≤ ++ <25%) | + (LOQ ≤ + <5%) | + (LOQ ≤ + <5%) | + (LOQ ≤ + <5%) | ++ (5% ≤ ++ <25%) |  |  | 
2 | Cl.NC1COCCc2ccc3ccccc3c21 (stereo not drawn) [Example 32] |  | + (LOQ ≤ + <5%) | ++ (5% ≤ ++ <25%) | ++ (5% ≤ ++ <25%) | + (LOQ ≤ + <5%) | ++ (5% ≤ ++ <25%) | + (LOQ ≤ + <5%) | ++ (5% ≤ ++ <25%) | ++ (5% ≤ ++ <25%) | + (LOQ ≤ + <5%) | C (>10 to ≤30 mpk) |  | 
3 | CCN(C)C(=O)Oc1ccc2c(c1)COCC2N(C)C.Cl (stereo not drawn) [Example 283] |  | ++ (5% ≤ ++ <25%) | + (LOQ ≤ + <5%) | ++ (5% ≤ ++ <25%) | + (LOQ ≤ + <5%) | ++ (5% ≤ ++ <25%) | +++ (25% ≤ +++ <50%) | ++ (5% ≤ ++ <25%) | ++ (5% ≤ ++ <25%) | ++ (5% ≤ ++ <25%) |  | 3 to 10 | 
4 | Cl.NC1COCc2ccc3c(c21)C1CCC3C1 (single isomer, unassigned) [Example 164] |  | + (LOQ ≤ + <5%) | ++ (5% ≤ ++ <25%) | +++ (25% ≤ +++ <50%) | ++ (5% ≤ ++ <25%) | + (LOQ ≤ + <5%) | + (LOQ ≤ + <5%) | ++ (5% ≤ ++ <25%) | ++ (5% ≤ ++ <25%) | +++ (25% ≤ +++ <50%) |  |  | B (>3 to 10 mpk)
5 | Cc1ccc2c(c1)[C@H](N)[C@@H](C)COC2.Cl (relative stereo) [Example 75, trans-4,7-dimethyl-1,3,4,5-tetrahydrobenzo [c]oxepin-5-amine hydrochloride] | 10 to 30 | + (LOQ ≤ + <5%) | ++ (5% ≤ ++ <25%) | ++ (5% ≤ ++ <25%) | ++ (5% ≤ ++ <25%) | + (LOQ ≤ + <5%) | + (LOQ ≤ + <5%) | ++ (5% ≤ ++ <25%) | + (LOQ ≤ + <5%) | +++ (25% ≤ +++ <50%) |  |  | 
6 | Cc1cccc2c1COCCC2N.Cl (stereo not drawn) [Example 37] | 10 to 30 | + (LOQ ≤ + <5%) | ++ (5% ≤ ++ <25%) | ++ (5% ≤ ++ <25%) | ++ (5% ≤ ++ <25%) | + (LOQ ≤ + <5%) | + (LOQ ≤ + <5%) | ++ (5% ≤ ++ <25%) | + (LOQ ≤ + <5%) | +++ (25% ≤ +++ <50%) |  |  | 
7 | Cc1ccc2c(c1)[C@@H](N)[C@H](C)OC2.Cl (relative stereo) [Example 77, trans-3,6-Dimethylisochroman-4-amine hydrochloride] | < 3 | + (LOQ ≤ + <5%) | ++ (5% ≤ ++ <25%) | ++ (5% ≤ ++ <25%) | ++ (5% ≤ ++ <25%) | ++ (5% ≤ ++ <25%) | + (LOQ ≤ + <5%) | ++ (5% ≤ ++ <25%) | + (LOQ ≤ + <5%) | +++ (25% ≤ +++ <50%) |  |  | 
8 | CN[C@H]1COCc2cccc(C)c21 (single isomer, unassigned) [Example 138] | 3 to 10 | + (LOQ ≤ + <5%) | ++ (5% ≤ ++ <25%) | ++ (5% ≤ ++ <25%) | ++ (5% ≤ ++ <25%) | ++ (5% ≤ ++ <25%) | + (LOQ ≤ + <5%) | ++ (5% ≤ ++ <25%) | ++ (5% ≤ ++ <25%) | +++ (25% ≤ +++ <50%) |  |  | 
9 | C[C@@H]1OCc2ccc(F)cc2[C@@H]1N.Cl [Example 88] | < 3 | + (LOQ ≤ + <5%) | ++ (5% ≤ ++ <25%) | +++ (25% ≤ +++ <50%) | ++ (5% ≤ ++ <25%) | + (LOQ ≤ + <5%) | + (LOQ ≤ + <5%) | ++ (5% ≤ ++ <25%) | ++ (5% ≤ ++ <25%) | +++ (25% ≤ +++ <50%) |  |  | 
